Measurements as given in patent publication US20190100517A1, “COMPOUNDS” (GlaxoSmithKline Intellectual Property Development Limited, priority 2015, published 2019).
Where “and” joins values, the source holds several entries; their conditions need not be identical. Equal entries are not always repeated.

These compounds were tested against human KMO (Homo sapiens, UniProt O15229) (assay: KMO MS Rapidfire assay (RapidFire high-throughput mass spectrometry, Method 1 or Method 2)).
human KMO, sequence (O15229 whole entry): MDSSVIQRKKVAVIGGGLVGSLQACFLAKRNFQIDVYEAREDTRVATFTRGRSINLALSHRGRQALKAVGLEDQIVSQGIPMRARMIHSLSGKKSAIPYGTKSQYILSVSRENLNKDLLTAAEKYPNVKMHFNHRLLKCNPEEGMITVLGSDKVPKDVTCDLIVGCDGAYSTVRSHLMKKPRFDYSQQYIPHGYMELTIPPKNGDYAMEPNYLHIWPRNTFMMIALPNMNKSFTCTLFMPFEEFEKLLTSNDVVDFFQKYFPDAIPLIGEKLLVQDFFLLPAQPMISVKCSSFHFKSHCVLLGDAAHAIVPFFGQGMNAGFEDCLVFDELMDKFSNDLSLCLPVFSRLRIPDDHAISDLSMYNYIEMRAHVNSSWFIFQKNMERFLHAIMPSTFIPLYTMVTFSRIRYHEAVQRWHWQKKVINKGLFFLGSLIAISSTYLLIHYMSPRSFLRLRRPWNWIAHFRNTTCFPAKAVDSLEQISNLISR
Method: KMO inhibition can be determined by MS Rapidfire assay performed on the human cloned enzyme as described herein.
pFastbac1 GST-KMO was transposed into the baculovirus genome using the BAC-to-BAC technology (Invitrogen) and bacmid DNA was prepared and transfected into Spodoptera frugiperda (Sf9) cells using Cellfectin II (Invitrogen).
A P1 virus stock was generated from a single clone and used to infect 3×1.5 L cultures of Sf9 cells in 3 L Corning Fernbach flasks. The Sf9 cells were grown in Hyclone SFX media (Thermo Scientific) to about 3×10^6 cells/ml and were infected at a nominal multiplicity of infection of 3. Cells were harvested after 48 hours and disrupted by blending in 50 mM HEPES, pH 7.4, 1 mM EDTA buffer containing protease inhibitors. A low speed spin (400 g) was used to remove cell debris, followed by a high speed spin (75 000 g) to pellet the membranes. The membranes were purified in a discontinuous sucrose density gradient by re-suspending in 10% (w/v) sucrose and layering over 40% (w/v) sucrose, both in the above buffer. This was centrifuged at 150 000 g and the purified membranes were taken from the interface, collected by centrifugation at 100 000 g, resuspended in buffer and aliquoted for storage at −80° C.
100 nL DMSO was dispensed into columns 6 and 18 for high and low controls, respectively, with prior inactivation of the enzyme in column 18 by pre-dispense of 30 μL of 0.5% (v/v) TFA.
Conditions for the assay of human KMO using isolated KMO-membranes were 50 mM HEPES, pH 7.5, 2 mM DTT, 1 mM EDTA, 100 μM CHAPS, 200 μM NADPH, 10 μM Kynurenine and 8 μg/ml KMO-membranes in a total reaction volume of 10 μL.
Assays were performed by initially dispensing 5 μL of a 2× Enzyme solution (16 μg/ml KMO-membranes in 50 mM HEPES, pH 7.5, 2 mM DTT, 2 mM EDTA, 200 μM CHAPS) into plates containing 100 nL compounds and incubating for 10 min at ambient temperature. Reactions were initiated by addition of 5 μL of 2× Substrate solution (400 μM NADPH, 20 μM Kynurenine in 50 mM HEPES, pH 7.5, 2 mM DTT) and incubated for 2 h at room temperature before quenching the reaction with 30 μL of 0.5% (v/v) TFA. Plates were centrifuged at 2500 rpm for 10 min before analysis. All additions were made using a Multidrop Combi dispenser (Thermo Fisher Scientific).
Quenched assay plates were transferred to a high-throughput RapidFire200 integrated autosampler/solid-phase extraction (SPE) system (Agilent Technologies, Wakefield, Mass.). […] Analytes were then eluted into the mass spectrometer, in a 3 s elution cycle, using 80% (v/v) acetonitrile/water containing 0.1% (v/v) formic acid, and the cartridge was then equilibrated by washing with water containing 0.1% (v/v) formic acid for 500 ms. This gave a total cycle time of 7 s, enabling analysis of a 384-well plate in approximately 45 min.
Both Kyn and 3-HK were detected using a Sciex AP14000 triple quadrupole mass spectrometer (Applied Biosystems, Concord, Ontario, Canada), equipped with an electrospray interface and operated in positive ion mode. […] The mass spectrometer used an ESI voltage of 5500 V and a source temperature of 600° C., with a dwell time of 50 ms for each transition.
Individual MRM transitions were saved as text files and the extracted ion chromatograms were integrated and processed using the RapidFire® peak integration software (version 3.6).

SMILES | IC50
CCC(Oc1cc2sc(=O)n(CCC(=O)O)c2cc1Cl)c1ncc(C)cn1 (single isomer, unassigned) [Example 5, 3-{5-chloro-6-[1-(5-methylpyrimidin-2-yl)propoxy]-2-oxo-2,3-dihydro-1,3-benzothiazol-3-yl}propanoic acid] | ≤ 10 nM
CCC(Oc1cc2sc(=O)n(CCC(=O)O)c2cc1Cl)c1ccc(C)cn1 (single isomer, unassigned) [Example 8, 3-{5-chloro-6-[1-(5-methylpyridin-2-yl)propoxy]-2-oxo-2,3-dihydro-1,3-benzothiazol-3-yl}propanoic acid] | ≤ 10 nM
CC[C@@H](Oc1cc2sc(=O)n(CCC(=O)O)c2cc1Cl)c1ccc(Cl)cn1 (single isomer, unassigned) [Example 9, 3-{5-chloro-6-[1-(5-chloropyridin-2-yl)propoxy]-2-oxo-2,3-dihydro-1,3-benzothhiazol-3-yl}propanoic acid] | ≤ 10 nM
CCC(Oc1cc2sc(=O)n(CCC(=O)O)c2cc1Cl)c1ncc(Cl)cn1 (single isomer, unassigned) [Example 11, 3-{5-chloro-6-[1-(5-chloropyrimidin-2-yl)propoxy]-2-oxo-2,3-dihydro-1,3-benzothiazol-3-yl}propanoic acid] | ≤ 10 nM
CCC(Oc1cc2sc(=O)n(CCC(=O)O)c2cc1Cl)c1cccnn1 (single isomer, unassigned) [Example 14, 3-{5-chloro-2-oxo-6-[1-(pyridazin-3-yl)propoxy]-2,3-dihydro-1,3-benzothiazol-3-yl}propanoic acid] | ≤ 10 nM
Cc1ccc(C(C)Oc2cc3sc(=O)n(CCC(=O)O)c3cc2Cl)nn1 (single isomer, unassigned) [Example 16, 3-{5-chloro-6-[1-(6-methylpyridazin-3-yl)ethoxy]-2-oxo-2,3-dihydro-1,3-benzothiazol-3-yl}propanoic acid] | ≤ 10 nM
Cc1cnc(C(C)Oc2cc3sc(=O)n(CCC(=O)O)c3cc2Cl)nc1 (single isomer, unassigned) [Example 18, 3-{5-chloro-6-[1-(5-methylpyrimidin-2-yl)ethoxy]-2-oxo-2,3-dihydro-1,3-benzothiazol-3-yl}propanoic acid] | ≤ 10 nM
CCC(Oc1cc2sc(=O)n(CCC(=O)O)c2cc1Cl)c1ccccn1 (single isomer, unassigned) [Example 19, 3-{5-chloro-2-oxo-6-[1-(pyridin-2-yl)propoxy]-2,3-dihydro-1,3-benzothiazol-3-yl}propanoic acid] | ≤ 10 nM
CC(Oc1cc2sc(=O)n(CCC(=O)O)c2cc1Cl)c1ncc(Cl)cn1 (single isomer, unassigned) [Example 24, 3-{5-chloro-6-[1-(5-chloropyrimidin-2-yl)ethoxy]-2-oxo-2,3-dihydro-1,3-benzothiazol-3-yl}propanoic acid] | ≤ 10 nM
CCc1ccc(C(C)Oc2cc3sc(=O)n(CCC(=O)O)c3cc2Cl)nc1 (single isomer, unassigned) [Example 25, 3-{5-chloro-6-[1-(5-ethylpyridin-2-yl)ethoxy]-2-oxo-2,3-dihydro-1,3-benzothiazol-3-yl}propanoic acid] | ≤ 10 nM
CCC(Oc1cc2sc(=O)n(CCC(=O)O)c2cc1Cl)c1ncccn1 (single isomer, unassigned) [Example 29, 3-{5-chloro-2-oxo-6-[1-(pyrimidin-2-yl)propoxy]-2,3-dihydro-1,3-benzothiazol-3-yl}propanoic acid] | ≤ 10 nM
CCC(Oc1cc2sc(=O)n(CCC(=O)O)c2cc1Cl)c1ccc(C)nn1 (single isomer, unassigned) [Example 32, 3-{5-chloro-6-[1-(6-methylpyridazin-3-yl)propoxy]-2-oxo-2,3-dihydro-1,3-benzothiazol-3-yl}propanoic acid] | ≤ 10 nM
C[C@@H](Oc1cc2sc(=O)n(CCC(=O)O)c2cc1Cl)c1ccc(Cl)cn1 [Example 1, 3-(5-chloro-6-[(R)-1-(5-chloropyridin-2-yl)ethoxy]-2-oxobenzo[d]thiazol-3(2H)-yl)propanoic acid] | ≤ 10 nM and 1.26 nM
Cc1cnc(COc2cc3sc(=O)n(CCC(=O)O)c3cc2Cl)nc1 [Example 4, 3-{5-chloro-6-[(5-methylpyrimidin-2-yl)methoxy]-2-oxo-2,3-dihydro-1,3-benzothiazol-3-yl}propanoic acid] | ≤ 10 nM
O=C(O)CCn1c(=O)sc2cc(OCc3ccc(Cl)cn3)c(Cl)cc21 [Example 21, 3-{5-chloro-6-[(5-chloropyridin-2-yl)methoxy]-2-oxo-2,3-dihydro-1,3-benzothiazol-3-yl}propanoic acid] | ≤ 10 nM
Cc1ccc(COc2cc3sc(=O)n(CCC(=O)O)c3cc2Cl)nn1 [Example 22, 3-{5-chloro-6-[(6-methylpyridazin-3-yl)methoxy]-2-oxo-2,3-dihydro-1,3-benzothiazol-3-yl}propanoic acid] | ≤ 10 nM
O=C(O)CCn1c(=O)sc2cc(OCc3ncc(Cl)cn3)c(Cl)cc21 [Example 27, 3-{5-chloro-6-[(5-chloropyrimidin-2-yl)methoxy]-2-oxo-2,3-dihydro-1,3-benzothiazol-3-yl}propanoic acid] | ≤ 10 nM
Cc1ccc(COc2cc3sc(=O)n(CCC(=O)O)c3cc2Cl)nc1 [Example 30, 3-{5-chloro-6-[(5-methylpyridin-2-yl)methoxy]-2-oxo-2,3-dihydro-1,3-benzothiazol-3-yl}propanoic acid] | ≤ 10 nM
Cc1ccc([C@@H](C)Oc2cc3sc(=O)n(CCC(=O)O)c3cc2Cl)nc1 [Example 33, 3-{5-chloro-6-[(1R)-1-(5-methylpyridin-2-yl)ethoxy]-2-oxo-2,3-dihydro-1,3-benzothiazol-3-yl}propanoic acid] | ≤ 10 nM
